Laboratory results taken from patent publication US20210227837A1, “NATAMYCIN FOR THE PRESERVATION OF A BAKED PRODUCT” (DSM IP ASSETS B.V., priority 2018, published 2021).

Assay: Stability of natamycin solutions in propylene glycol and aqueous potassium formate (residual natamycin by HPLC)
Type: physicochemical
Details: natamycin 1% (w/w)
Protocol: Natamycin concentrations were determined using […] as follows. • HPLC system: Waters iClass • Column: Waters Symmetry C18, 4.6×150 mm, 3.5 μm, Part No. WAT200632, Column no. 1483, Lot no. 0198313011 • Column temperature: 25° C. • Eluent A: 50 mM ammonium acetate buffer pH 5.8 (with acetic acid) • Eluent B: Acetonitrile • Wash: 60% acetonitrile/40% water (v/v) • Injection volume: 10 μl • Injector temperature: 10° C. in darkness • Flow: 1 mL/min
The reverse phase HPLC uses a UV detector to determine the residual concentration of natamycin at 303 nm. A set of standard dilutions containing subsequently increasing concentrations of natamycin in methanol was made and from these a calibration curve was obtained. The concentration of natamycin should not exceed a concentration of 88 mg/L. Generally, the dilutions contained 20 mg of sample and […] of methanol.
A 3.5 M solution of potassium formate in water (15.17 g) was mixed with propylene glycol (80.32 g) and natamycin (1.059 g) and heated for 2.57 h until a final temperature of 105° C. A second batch was prepared by mixing a 3.5 M solution of potassium formate in water (15.07 g) with propylene glycol (80.5 g) and natamycin (1.032 g) and heating for 3.25 h until a final temperature of 105° C. Both batches were filtered over a 2 μm filter and combined to give a solution with a natamycin concentration of 1.08% (w/w). […] Samples of the mixtures were analyzed over time by HPLC for residual natamycin concentration. The shelf life test of the mixtures was done by storage at low temperatures (4-7° C.) and ambient temperatures (20-24° C.).

Residual natamycin (%) (Blank (water instead of potassium formate), propylene glycol, 4-7° C., pH 6.2, day 0): 80% | Residual natamycin (%) (Blank (water instead of potassium formate), propylene glycol, 4-7° C., pH 6.2, day 14): 43% | Residual natamycin (%) (Blank (water instead of potassium formate), propylene glycol, 4-7° C., pH 6.2, day 23): 22% | Residual natamycin (%) (Blank (water instead of potassium formate), propylene glycol, 4-7° C., pH 6.2, day 32): 12% | Residual natamycin (%) (Blank (water instead of potassium formate), propylene glycol, 4-7° C., pH 6.2, day 35): 7% | Residual natamycin (%) (Blank (water instead of potassium formate), propylene glycol, 20-24° C., pH 6.3, day 0): 83% | Residual natamycin (%) (Blank (water instead of potassium formate), propylene glycol, 20-24° C., pH 6.3, day 5): 72% | Residual natamycin (%) (Blank (water instead of potassium formate), propylene glycol, 20-24° C., pH 6.3, day 7): 66% | Residual natamycin (%) (Blank (water instead of potassium formate), propylene glycol, 20-24° C., pH 6.3, day 12): 55% | Residual natamycin (%) (Blank (water instead of potassium formate), propylene glycol, 20-24° C., pH 6.3, day 14): 52% | Residual natamycin (%) (Blank (water instead of potassium formate), propylene glycol, 20-24° C., pH 6.3, day 25): 31% | Residual natamycin (%) (Blank (water instead of potassium formate), propylene glycol, 20-24° C., pH 6.3, day 27): 25% | Residual natamycin (%) (Blank (water instead of potassium formate), propylene glycol, 20-24° C., pH 6.3, day 43): 18% | Residual natamycin (%) (Blank (water instead of potassium formate), propylene glycol, 20-24° C., pH 6.3, day 74): 6% | Residual natamycin (%) (propylene glycol + aqueous potassium formate, 4-7° C., pH 9.5, day 0): 111% | Residual natamycin (%) (propylene glycol + aqueous potassium formate, 4-7° C., pH 9.5, day 5): 114% | Residual natamycin (%) (propylene glycol + aqueous potassium formate, 4-7° C., pH 9.5, day 14): 114% | Residual natamycin (%) (propylene glycol + aqueous potassium formate, 4-7° C., pH 9.5, day 23): 112% | Residual natamycin (%) (propylene glycol + aqueous potassium formate, 4-7° C., pH 9.5, day 43): 108% | Residual natamycin (%) (propylene glycol + aqueous potassium formate, 4-7° C., pH 9.8, day 0): 96% | Residual natamycin (%) (propylene glycol + aqueous potassium formate, 4-7° C., pH 9.8, day 4): 96% | Residual natamycin (%) (propylene glycol + aqueous potassium formate, 4-7° C., pH 9.8, day 10): 97% | Residual natamycin (%) (propylene glycol + aqueous potassium formate, 4-7° C., pH 9.8, day 15): 88% | Residual natamycin (%) (propylene glycol + aqueous potassium formate, 4-7° C., pH 9.8, day 18): 92% | Residual natamycin (%) (propylene glycol + aqueous potassium formate, 4-7° C., pH 9.8, day 25): 91% | Residual natamycin (%) (propylene glycol + aqueous potassium formate, 4-7° C., pH 9.8, day 42): 88% | Residual natamycin (%) (propylene glycol + aqueous potassium formate, 4-7° C., pH 9.8, day 53): 90% | Residual natamycin (%) (propylene glycol + aqueous potassium formate, 4-7° C., pH 9.8, day 60): 96% | Residual natamycin (%) (propylene glycol + aqueous potassium formate, 4-7° C., pH 9.8, day 80): 87% | Residual natamycin (%) (propylene glycol + aqueous potassium formate, 4-7° C., pH lowered to 5.9 by formic acid, day 0): 83% | Residual natamycin (%) (propylene glycol + aqueous potassium formate, 4-7° C., pH lowered to 5.9 by formic acid, day 5): 66% | Residual natamycin (%) (propylene glycol + aqueous potassium formate, 4-7° C., pH lowered to 5.9 by formic acid, day 14): 45% | Residual natamycin (%) (propylene glycol + aqueous potassium formate, 4-7° C., pH lowered to 5.9 by formic acid, day 23): 21% | Residual natamycin (%) (propylene glycol + aqueous potassium formate, 4-7° C., pH lowered to 5.9 by formic acid, day 43): 2% | Residual natamycin (%) (propylene glycol + aqueous potassium formate, 4-7° C., pH lowered to 8.8 by formic acid, day 0): 94% | Residual natamycin (%) (propylene glycol + aqueous potassium formate, 4-7° C., pH lowered to 8.8 by formic acid, day 5): 96% | Residual natamycin (%) (propylene glycol + aqueous potassium formate, 4-7° C., pH lowered to 8.8 by formic acid, day 14): 94% | Residual natamycin (%) (propylene glycol + aqueous potassium formate, 4-7° C., pH lowered to 8.8 by formic acid, day 23): 93% | Residual natamycin (%) (propylene glycol + aqueous potassium formate, 4-7° C., pH lowered to 8.8 by formic acid, day 43): 86% | Residual natamycin (%) (propylene glycol + aqueous potassium formate, 4-7° C., pH lowered to 9.0 by formic acid, day 0): 93% | Residual natamycin (%) (propylene glycol + aqueous potassium formate, 4-7° C., pH lowered to 9.0 by formic acid, day 5): 97% | Residual natamycin (%) (propylene glycol + aqueous potassium formate, 4-7° C., pH lowered to 9.0 by formic acid, day 14): 94% | Residual natamycin (%) (propylene glycol + aqueous potassium formate, 4-7° C., pH lowered to 9.0 by formic acid, day 23): 93% | Residual natamycin (%) (propylene glycol + aqueous potassium formate, 4-7° C., pH lowered to 9.0 by formic acid, day 43): 92% | Residual natamycin (%) (propylene glycol + aqueous potassium formate, 20-24° C., pH 9.8, day 0): 92% | Residual natamycin (%) (propylene glycol + aqueous potassium formate, 20-24° C., pH 9.8, day 5): 95% | Residual natamycin (%) (propylene glycol + aqueous potassium formate, 20-24° C., pH 9.8, day 7): 95% | Residual natamycin (%) (propylene glycol + aqueous potassium formate, 20-24° C., pH 9.8, day 9): 92% | Residual natamycin (%) (propylene glycol + aqueous potassium formate, 20-24° C., pH 9.8, day 12): 87% | Residual natamycin (%) (propylene glycol + aqueous potassium formate, 20-24° C., pH 9.8, day 18): 92% | Residual natamycin (%) (propylene glycol + aqueous potassium formate, 20-24° C., pH 9.8, day 20): 87% | Residual natamycin (%) (propylene glycol + aqueous potassium formate, 20-24° C., pH 9.8, day 27): 86% | Residual natamycin (%) (propylene glycol + aqueous potassium formate, 20-24° C., pH 9.8, day 32): 82% | Residual natamycin (%) (propylene glycol + aqueous potassium formate, 20-24° C., pH 9.8, day 35): 83% | Residual natamycin (%) (propylene glycol + aqueous potassium formate, 20-24° C., pH 9.8, day 43): 80% | Residual natamycin (%) (propylene glycol + aqueous potassium formate, 20-24° C., pH 9.8, day 74): 69%
SMILES: C[C@@H]1C/C=C/C=C/C=C/C=C/[C@H](O[C@@H]2O[C@H](C)[C@@H](O)[C@H](N)[C@@H]2O)C[C@@H]2O[C@](O)(C[C@@H](O)C[C@H]3O[C@@H]3/C=C/C(=O)O1)C[C@H](O)[C@H]2C(=O)O [natamycin]
